Test results reported in ChEMBL document CHEMBL3885861, “Open TG-GATES”.

Species: Rattus norvegicus
Experiment: Open TG-GATES - Regimen: Daily Repeat
Format: toxicity, organism-based, Sprague-Dawley
Parameters: regimen Daily Repeat, gender Male, age 6 weeks
Settings: in vivo, po, route gavage; for Eos / Fbg / Hb / Ht / Lym / MCH / MCV / Mono / Neu / PT / Plat / RBC / Ret / WBC / APTT / Bas: tissue Blood; for KIDNEY_L / KIDNEY_R / KIDNEY_TOTAL: tissue Kidney; for LIVER: tissue Liver; for ALP / ALT / AST / BUN / CRE / Ca / Cl / DBIL / GLC / IP / K / LDH / Na / PL / RALB / TBIL / TC / TP / gamma-GTP: tissue Plasma
[1] = 100 mg/kg, 72 h, dose level Middle, time 3 day
[2] = 100 mg/kg, […], dose level Middle, time 7 day
[3] = 100 mg/kg, […], dose level Middle, time 14 day
[4] = 100 mg/kg, […], dose level Middle, time 28 day
[5] = 300 mg/kg, 72 h, dose level High, time 3 day

NC(=O)N1c2ccccc2C=Cc2ccccc21 [CARBAMAZEPINE]
Eos [1]: 1.2% | Fbg [1]: 224.6 mg/dL | Hb [1]: 13.6 g/dL | Ht [1]: 39.9% | Lym [1]: 79% | MCH [1]: 21.3 pg | MCV [1]: 62.4 fL | Mono [1]: 2.4% | Neu [1]: 16.4% | PT [1]: 11.9 s | Plat [1]: 125.3 x10_4/uL | RBC [1]: 638.8 x10_4/ul | Ret [1]: 4.9% | WBC [1]: 79.2 x10_2/uL | KIDNEY_L [1]: 1 g | KIDNEY_R [1]: 1 g | KIDNEY_TOTAL [1]: 2.1 g | LIVER [1]: 12.1 g | ALP [1]: 795 IU/L | ALT [1]: 39.6 IU/L | AST [1]: 67.2 IU/L | BUN [1]: 15.8 mg/dL | CRE [1]: 0.4 mg/dL | Ca [1]: 11.1 mg/dL | Cl [1]: 103.4 meq/L | DBIL [1]: 0.084 mg/dL | GLC [1]: 217.2 mg/dL | IP [1]: 7.9 mg/dL | K [1]: 3.5 meq/L | LDH [1]: 212.4 IU/L | Na [1]: 141.4 meq/L | PL [1]: 154.4 mg/dL | RALB [1]: 3.4 g/dL | TBIL [1]: 0.1 mg/dL | TC [1]: 80.6 mg/dL | TP [1]: 5.8 g/dL | gamma-GTP [1]: 0.8 IU/L | TERMINAL_BW [2]: 271.4 g | TERMINAL_BW [3]: 314.7 g | TERMINAL_BW [4]: 397.6 g | APTT [2]: 20.2 s | Bas [2]: 0% | Eos [2]: 1% | Fbg [2]: 229.8 mg/dL | Hb [2]: 13.3 g/dL | Ht [2]: 39.4% | Lym [2]: 85% | MCH [2]: 21.1 pg | MCV [2]: 62.5 fL | Mono [2]: 2.6% | Neu [2]: 10.8% | PT [2]: 11.6 s | Plat [2]: 134.8 x10_4/uL | RBC [2]: 630.8 x10_4/ul | Ret [2]: 5.1% | WBC [2]: 131.2 x10_2/uL | APTT [3]: 21.8 s | Bas [3]: 0% | Eos [3]: 0.6% | Fbg [3]: 213.4 mg/dL | Hb [3]: 14.4 g/dL | Ht [3]: 41.3% | Lym [3]: 80% | MCH [3]: 20.6 pg | MCV [3]: 59.1 fL | Mono [3]: 2% | Neu [3]: 16% | PT [3]: 12.4 s | Plat [3]: 122.9 x10_4/uL | RBC [3]: 698.6 x10_4/ul | Ret [3]: 3.8% | WBC [3]: 129.1 x10_2/uL | APTT [4]: 21.1 s | Bas [4]: 0% | Eos [4]: 1.2% | Fbg [4]: 222 mg/dL | Hb [4]: 15.7 g/dL | Ht [4]: 44.3% | Lym [4]: 80% | MCH [4]: 19.5 pg | MCV [4]: 55.1 fL | Mono [4]: 2.4% | Neu [4]: 15.4% | PT [4]: 12.8 s | Plat [4]: 105.9 x10_4/uL | RBC [4]: 804 x10_4/ul | Ret [4]: 2% | WBC [4]: 98.2 x10_2/uL | KIDNEY_L [2]: 1.2 g | KIDNEY_R [2]: 1.1 g | KIDNEY_TOTAL [2]: 2.3 g | KIDNEY_L [3]: 1.3 g | KIDNEY_R [3]: 1.3 g | KIDNEY_TOTAL [3]: 2.6 g | KIDNEY_L [4]: 1.6 g | KIDNEY_R [4]: 1.5 g | KIDNEY_TOTAL [4]: 3.1 g | LIVER [2]: 14.5 g | LIVER [3]: 14.8 g | LIVER [4]: 16.8 g | ALP [2]: 857.6 IU/L | ALT [2]: 34 IU/L | AST [2]: 63 IU/L | BUN [2]: 17 mg/dL | CRE [2]: 0.5 mg/dL | Ca [2]: 10.7 mg/dL | Cl [2]: 102.2 meq/L | DBIL [2]: 0.1 mg/dL | GLC [2]: 207.6 mg/dL | IP [2]: 7.3 mg/dL | K [2]: 3.6 meq/L | LDH [2]: 233.2 IU/L | Na [2]: 141.2 meq/L | PL [2]: 175 mg/dL | RALB [2]: 3.5 g/dL | TBIL [2]: 0.1 mg/dL | TC [2]: 93.4 mg/dL | TP [2]: 5.9 g/dL | gamma-GTP [2]: 1 IU/L | ALP [3]: 733.4 IU/L | ALT [3]: 37.6 IU/L | AST [3]: 64.6 IU/L | BUN [3]: 16.5 mg/dL | CRE [3]: 0.5 mg/dL | Ca [3]: 10.6 mg/dL | Cl [3]: 101.6 meq/L | DBIL [3]: 0.1 mg/dL | GLC [3]: 205.4 mg/dL | IP [3]: 7.5 mg/dL | K [3]: 3.7 meq/L | LDH [3]: 203.2 IU/L | Na [3]: 141.4 meq/L | PL [3]: 161.2 mg/dL | RALB [3]: 3.4 g/dL | TBIL [3]: 0.2 mg/dL | TC [3]: 84.4 mg/dL | TP [3]: 5.9 g/dL | gamma-GTP [3]: 1.2 IU/L | ALP [4]: 641.4 IU/L | ALT [4]: 41.2 IU/L | AST [4]: 62.2 IU/L | BUN [4]: 17.4 mg/dL | CRE [4]: 0.4 mg/dL | Ca [4]: 10.2 mg/dL | Cl [4]: 101.8 meq/L | DBIL [4]: 0.092 mg/dL | GLC [4]: 213.8 mg/dL | IP [4]: 7 mg/dL | K [4]: 3.6 meq/L | LDH [4]: 138.6 IU/L | Na [4]: 141.4 meq/L | PL [4]: 158.2 mg/dL | RALB [4]: 3.5 g/dL | TBIL [4]: 0.1 mg/dL | TP [4]: 6.2 g/dL | gamma-GTP [4]: 0.6 IU/L | TERMINAL_BW [5]: 224.7 g | APTT [5]: 20.4 s
